In ChEMBL document CHEMBL4052775, “Design, synthesis and in vitro anti-mycobacterial evaluation of gatifloxacin-1H-1,2,3-triazole-isatin hybrids” (Bioorg Med Chem Lett, 2017):
≈ marks a conversion by molar mass, not a printed value.

What follows are compounds tested on Mycobacterium tuberculosis (assay: Antimycobacterial activity against isoniazid/rifampicin/ethambutol-resistant Mycobacterium tuberculosis 09710 by two fold dilution method).
Type: functional
In the case of `COc1c(N2CCNC(C)C2)c(F)cc2c(=O)c(C(=O)O)cn(C3CC3)c12` (stereo not drawn) [GATIFLOXACIN], the MIC is reported as 1 µg/mL (≈ 2.66 µM).
With `NNC(=O)c1ccncc1` [ISONIAZID] the MIC was > 128 µg/mL.
`CO[C@H]1/C=C/O[C@@]2(C)Oc3c(C)c(O)c4c(O)c(c(/C=N/N5CCN(C)CC5)c(O)c4c3C2=O)NC(=O)/C(C)=C\C=C\[C@H](C)[C@H](O)[C@@H](C)[C@@H](O)[C@@H](C)[C@H](OC(C)=O)[C@@H]1C` [RIFAMPIN] showed an MIC of 32 µg/mL (≈ 38.9 µM).
